Like-named read-outs stand apart in the source and are kept apart here. One block for each molecule: values may come before it.
Assays:
human MAGL = target: T1, human MAGL (Homo sapiens, UniProt Q99685); assay: MAGL inhibition potency assay with 4-nitrophenyl acetate (4NPA) substrate, absorbance 405 nm; format: biochemical; conditions: read-out: MAGL Potency (Detection Method)
T1 construct: recombinant MAGL enzyme (aa 2-303 RBC, internal preparation)
T1 sequence (Q99685 2-303): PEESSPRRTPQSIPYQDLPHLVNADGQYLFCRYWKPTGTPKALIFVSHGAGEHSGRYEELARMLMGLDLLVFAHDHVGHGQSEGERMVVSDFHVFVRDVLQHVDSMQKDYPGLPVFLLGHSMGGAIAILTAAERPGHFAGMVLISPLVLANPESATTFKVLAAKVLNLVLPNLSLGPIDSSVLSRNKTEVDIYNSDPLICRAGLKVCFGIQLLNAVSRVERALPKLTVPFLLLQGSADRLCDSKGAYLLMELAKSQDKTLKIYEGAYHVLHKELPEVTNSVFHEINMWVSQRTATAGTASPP
Source text: Example 22: Measuring MAGL Inhibition Potency (IC50) The potency of certain compounds for inhibiting MAGL were obtained using the following assays. The monoacylglycerol lipase inhibitor screening assay kit from Cayman Chemical was used to measure the MAGL potency for the compounds in Table 6 and Table 7. Cayman's Monoacylglycerol Lipase Inhibitor Screening Assay provides a method for screening human MAGL inhibitors. MAGL hydrolyzes 4-nitrophenylacetate resulting in a yellow product, 4-nitrophenol, with an absorbance of 405-412 nm. MAGL Inhibition was measured by the following assay. Monoacylglycerol Lipase (MAGL) inhibition was measured using recombinant MAGL enzyme (aa 2-303 RBC, internal preparation) and the substrate 4-Nitrophenyl acetate (4NPA) (Sigma-Aldrich, N8130). Hydrolysis of the substrate in the presence of the enzyme was measured by absorbance at 405 nm. 10 μL of assay buffer (10 mM Tris pH 7.5, 1 mM EDTA, 0.9% DMSO) was added to a black 384-well non-binding plate with clear bottom (Greiner, 781906) for each reaction. […] DMSO control wells were included for reference. A 10.8 nM (1.8×) MAGL mix in assay buffer was prepared, with 25 μL added to each reaction well, for a final assay concentration of 6 nM. No enzyme wells received 25 μL of buffer. Plate was incubated at room temperature for 30 minutes. 35 mM solution of 4NPA in methanol was prepared daily. A 4.5×4NPA substrate solution was prepared in assay buffer and 10 μL was added to each reaction well, for a final assay concentration of 0.25 mM. Plate was spun for […] at 100 rpm before measuring absorbance using a CLARIOstar plate reader (BMG Labtech). A kinetic reading at 405 nm was done every minute for 30 minutes. Data was analyzed using the linear slope of the reaction progress curve and the average of the no-enzyme wells (background) was subtracted from the data. The background-subtracted slope data was converted to % activity using the average of wells with enzyme and DMSO vehicle. IC50 were calculated using GraphPad software (Sigmoidal dose response, variable slope equation). […] Table S provides potency measurements of MAGL inhibition measured using the Potency Assay of Example 22 above, with the following modifications described in Table C. [table]

[1] = Pharmacokinetic study of compounds in mice (brain exposure); format: in vivo, male C57BL/6 mice; conditions: oral; for AUC(0-t) / Cmax: male, C57BL/6, mouse, 5 mg/kg, Protocols B-E
Procedure: Example 25: Pharmacokinetic Study of Compounds in Mice
Healthy male C57BL/6 mice (8-12 weeks old) weighing between 17 to 35 g were procured from Global, India. Temperature and humidity were maintained at 22±3° C. and 30-70%, respectively and illumination was controlled to give a sequence of 12 hr light and 12 hr dark cycle. Temperature and humidity were recorded by auto-controlled data logger system. All the animals were provided laboratory rodent diet. Reverse osmosis water treated with ultraviolet light was provided ad libitum.
Protocol A: Twenty-four male mice were divided into two groups as; Group 1: 30 mg/kg/IP; Plasma and brain; Number of animals=12; Animal #1-12. Group 2: 30 mg/kg/PO; Plasma and brain; Number of animals=12; Animal #13-24. Animals in Group 1 were administered intraperitoneally with solution formulation of PSY-05-00074-001 in 5% NMP, 5% Solutol HS-15 and 90% normal saline at […] dose. Animals in Group 2 were administered orally with solution formulation of PSY-05-00074-001 in 5% NMP, 5% Solutol HS-15 and 90% normal saline at 30 mg/kg dose. Blood samples (approximately 60 μL) were collected under light isoflurane anesthesia from retro orbital plexus at 0.25, 0.5, 1, 2, 4 and 8 hr (IP and PO). Plasma samples were separated by centrifugation of whole blood and stored below −70° C. until bioanalysis. Immediately after collection of blood from intraperitoneal and oral group animals, animals were euthanized with excess CO2 and brain samples were collected from set of two mice at each time point. Brain samples were divided into two parts. Half brain samples were homogenized using ice-cold phosphate buffer saline (pH-7.4) and homogenates were stored below −70±10° C. until analysis. Total homogenate volume was three times the brain weight. Other part of brain was stored below −70±10° C. for further analysis. All samples were processed for analysis by protein precipitation using acetonitrile and analyzed with fit-for-purpose LC/MS/MS method (LLOQ-2.02 ng/mL for plasma and 6.06 ng/g for brain). Pharmacokinetic parameters were calculated using the non-compartmental analysis tool of Phoenix WinNonlin®.
Protocol B: Thirty six mice were included into the study and divided in to three groups as Group 1 (n=12), Group 2 (n=12) and Group 3 (n=12) with n=2 mice per time-point design. Animals in Group 1 were administered intravenously with solution formulation of PSY-05-00414-001 at 5 mg/kg dose. Animals in Group 2 were administered orally with solution formulation of PSY-05-00414-001 at a dose of 5 mg/kg. Animals in Group 3 were administered intraperitoneally with solution formulation of PSY-05-00414-001 at 5 mg/kg dose. The formulation vehicle for all the three groups was 5% NMP, 5% Solutol HS-15 and 90% normal saline. Blood samples (approximately 60 μL) were collected under light isoflurane anesthesia from two mice at 0.25, 0.5, 1, 2, 4 and 8 h. Plasma was harvested by centrifugation of blood and stored at −70±10° C. until analysis. After blood collection, brain was perfused and isolated at 0.25, 0.5, 1, 2, 4 and 8 h. Brain samples were dipped thrice in ice-cold phosphate buffer saline, blotted dry and cut in to two equal portion. Half-brain samples from each time-point were weighed and homogenized using ice-cold phosphate buffer saline with twice volume of brain weight making the total homogenate three volumes and stored below −70±10′° C. until analysis. Remaining half-portions of brain samples was snap freeze and kept in −70±10° C. until further confirmation from client. Plasma and brain samples were quantified by fit-for-purpose LC-MS/MS method (LLOQ: 1.01 ng/mL for plasma and 2.02 ng/mL for brain).
Protocol C: Fifty four male mice were included in study and divided in to three groups as Group 1 (n=18), Group 2 (n=18) and Group 3 (n=18) with 3 mice/time point design. […]

[2] = Method 12: Reaction Biology MAGL enzyme prep, 15 nM enzyme
[3] = Method 13: Reaction Biology MAGL enzyme prep, 12 nM enzyme

Structure (SMILES): Cc1cc(C2CC3(C2)CN(C(=O)c2ccc(F)cc2OC2CC2)C3)n(-c2cc(F)ccc2C)n1 (single isomer, unassigned) [Compound 418, (2-cyclopropoxy-4-fluorophenyl){6-[1-(5-fluoro-2-tolyl)-3-methyl-5-pyrazolyl]-2-aza-2-spiro[3.3]heptyl}methanone]
- IC50 (human MAGL; [2]): 50 to 150 nM

Structure (SMILES): O=C(c1ccc(F)cc1OC1CC1)N1CC2(CC(n3nc(-c4ccccc4C(F)(F)F)cc3C(F)(F)F)C2)C1 (single isomer, unassigned) [Compound 451, (2-cyclopropoxy-4-fluorophenyl)(6-{5-(trifluoromethyl)-3-[o-(trifluoromethyl)phenyl]-1-pyrazolyl}-2-aza-2-spiro[3.3]heptyl)methanone]
- IC50 (human MAGL; Method 6: Reaction Biology MAGL enzyme prep, 6 nM enzyme): 50 to 150 nM
- AUC(0-t) [1]: 1200 ng·h/mL
- Cmax [1]: 271 ng/g

Structure (SMILES): O=C(c1cc(O)ccc1F)N1CC2(CC(n3ncc(C(F)(F)F)c3-c3ccccc3F)C2)C1 (single isomer, unassigned) [Compound 472]
- IC50 (human MAGL; [2]): 50 to 150 nM

Structure (SMILES): Cc1ccc(F)c(-c2c(C(F)(F)F)cnn2C2CC3(C2)CN(C(=O)c2cc(O)ccc2F)C3)c1 (single isomer, unassigned) [Compound 474, (2-fluoro-5-hydroxyphenyl)(6-(5-(2-fluoro-5-methylphenyl)-4-(trifluoromethyl)-1H-pyrazol-1-yl)-2-azaspiro[3.3]heptan-2-yl)methanone]
- IC50 (human MAGL; [2]): 150 to 500 nM

Structure (SMILES): Cc1cnn(C2CC3(C2)CN(C(=O)c2cc(O)ccc2F)C3)c1-c1cc(F)ccc1F (single isomer, unassigned) [Compound 476, (6-(5-(2,5-Difluorophenyl)-4-methyl-1H-pyrazol-1-yl)-2-azaspiro [3.3]heptan-2-yl) (2-fluoro-5-hydroxyphenyl) methanone]
- AUC(0-t) [1]: 224 ng·h/mL
- Cmax [1]: 72 ng/g

Structure (SMILES): Cc1ccc(F)cc1-n1nc(C2CC3(C2)CN(C(=O)c2ccc(F)cc2OC2CC2)C3)cc1C (single isomer, unassigned) [Compound 482, (2-cyclopropoxy-4-fluorophenyl){6-[1-(5-fluoro-2-tolyl)-5-methyl-3-pyrazolyl]-2-aza-2-spiro[3.3]heptyl}methanone]
- IC50 (human MAGL; [2]): 500 to 1000 nM

Structure (SMILES): Cc1cc(C2CC3(C2)CN(C(=O)c2cc(O)ccc2F)C3)n(-c2ccccc2C)n1 [Compound 74, (2-fluoro-5-hydroxyphenyl)(6-(3-methyl-1-(o-tolyl)-1H-pyrazol-5-yl)-2-azaspiro[3.3]heptan-2-yl)methanone]
- AUClast ([1]; 30 mg/kg, Protocol A): 116.52 ng·h/mL

Further lines, results first:

- IC50 (human MAGL; [3]): 50 to 150 nM
Structure (SMILES): Cc1ccc(F)cc1-c1cc(C2CC2)nn1C1CC2(C1)CN(C(=O)c1cc(O)ccc1F)C2 (single isomer, unassigned) [Compound 490, (6-(3-cyclopropyl-5-(5-fluoro-2-methylphenyl)-1H-pyrazol-1-yl)-2-azaspiro [3.3]heptan-2-yl) (2-fluoro-5-hydroxyphenyl) methanone]

- IC50 (human MAGL; [3]): < 50 nM
Structure (SMILES): Cc1ccc(F)cc1-c1cc(C2CC2)n(C2CC3(C2)CN(C(=O)c2cc(O)ccc2F)C3)n1 (single isomer, unassigned) [Compound 491, (6-(5-cyclopropyl-3-(5-fluoro-2-methylphenyl)-1H-pyrazol-1-yl)-2-azaspiro [3.3]heptan-2-yl)(2-fluoro-5-hydroxyphenyl)methanone]

- IC50 (human MAGL; [2]): 50 to 150 nM
Structure (SMILES): O=C(c1cc(O)ccc1F)N1CC2(CC(n3ncc(C4CC4)c3-c3ccccc3F)C2)C1 (single isomer, unassigned) [Compound 492, (6-(4-Cyclopropyl-5-(2-fluorophenyl)-1H-pyrazol-1-yl)-2-azaspiro [3.3]heptan-2-yl) (2-fluoro-5-hydroxyphenyl) methanone]

- IC50 (human MAGL; [2]): 50 to 150 nM
Structure (SMILES): O=C(c1cc(O)ccc1F)N1CC2(CC(n3nccc3-c3ccccc3C(F)(F)F)C2)C1 (single isomer, unassigned) [Compound 526, (2-fluoro-5-hydroxyphenyl)(6-(5-(2-(trifluoromethyl)phenyl)-1H-pyrazol-1-yl)-2-azaspiro [3.3]heptan-2-yl)methanone]

- IC50 (human MAGL; Method 14: Reaction Biology MAGL enzyme prep, 6 nM enzyme (Conc "0", Source "0")): 50 to 150 nM
Structure (SMILES): Cc1ccccc1-n1nccc1C1CC2(C1)CN(C(=O)c1cc(O)ccc1F)C2 [Compound 367, (2-fluoro-5-hydroxyphenyl) (6-(1-(o-tolyl)-1H-pyrazol-5-yl)-2-azaspiro [3.3]heptan-2-yl) methanone]
